Patent US20260083865A1, “PROSTATE SPECIFIC MEMBRANE ANTIGEN (PSMA) LIGANDS AND USE THEREOF” (priority 2022, published 2026)
Where two headings read alike, the source gives them in different places. One block for each compound: values may come before it. Numbered stars: 1 amine (or outer) side, 2 acyl side, 3 side chain; on linkers, the order of the positions; unused ones are H or OH. Bridge positions count the residues as written; N and C are the ends. Square brackets hold non-standard residues; d marks the D form. Peptide text beside a SMILES is read from it. * marks the point of attachment. DO3AM = NC(=O)CN1CCN(CC(N)=O)CCN(CC(=O)*)CCN(CC(N)=O)CC1; DOTA = O=C(O)CN1CCN(CC(=O)O)CCN(CC(=O)*)CCN(CC(=O)O)CC1; Phe(4-Cl) = N[C@@H](Cc1ccc(Cl)cc1)C(=O)O; Arg(Me) = CNC(=N)NCCC[C@H](N)C(=O)O; X1 = O=C(CC1CCN([*:1])CC1)[*:2]; Cit = NC(=O)NCCC[C@H](N)C(=O)O; Lys(Me) = CNCCCC[C@H](N)C(=O)O; Tle = CC(C)(C)[C@H](N)C(=O)O; Aib = CC(C)(N)C(=O)O

How the values were obtained:
[1] = biological target: T1, PSMA-expressing C4-2 cells (Homo sapiens, UniProt Q04609); experiment: FACS binding assay (competition with 50 nM PSM-0183); details: read-out: pIC50 [C4-2] CAT (converted)
T1 construct: PSMA-expressing C4-2 cells (ATCC, Cat. No. CRL-3314) were cultured in RPMI-1640; host or cells: C4-2 cells
T1 sequence (Q04609 whole entry): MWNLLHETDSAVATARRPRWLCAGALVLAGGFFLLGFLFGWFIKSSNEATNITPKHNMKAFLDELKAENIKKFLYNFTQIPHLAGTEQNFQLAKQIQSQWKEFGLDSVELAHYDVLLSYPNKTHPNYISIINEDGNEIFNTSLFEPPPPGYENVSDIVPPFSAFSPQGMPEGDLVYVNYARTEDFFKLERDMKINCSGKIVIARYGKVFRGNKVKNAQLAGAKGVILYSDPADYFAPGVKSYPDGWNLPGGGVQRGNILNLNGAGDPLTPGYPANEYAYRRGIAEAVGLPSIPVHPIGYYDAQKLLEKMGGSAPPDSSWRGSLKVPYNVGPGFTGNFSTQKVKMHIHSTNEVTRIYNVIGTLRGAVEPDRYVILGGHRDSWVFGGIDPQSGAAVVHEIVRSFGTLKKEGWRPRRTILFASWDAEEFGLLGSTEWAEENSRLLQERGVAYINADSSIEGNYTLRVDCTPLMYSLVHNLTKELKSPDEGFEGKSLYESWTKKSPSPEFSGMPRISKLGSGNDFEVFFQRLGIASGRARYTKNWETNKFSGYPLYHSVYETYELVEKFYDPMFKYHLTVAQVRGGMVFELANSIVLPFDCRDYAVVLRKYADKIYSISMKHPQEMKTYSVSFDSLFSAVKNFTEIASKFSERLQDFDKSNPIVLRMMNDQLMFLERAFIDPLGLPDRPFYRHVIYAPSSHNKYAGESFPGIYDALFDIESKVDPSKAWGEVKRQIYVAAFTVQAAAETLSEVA
How it was run: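 C4-2 cells were incubated 1 h at 4 °C with 50 nM AF488-labelled peptide PSM-0183 plus increasing test compound concentrations, then washed twice in ice-cold buffer. Median fluorescence in the AF488 channel was read by flow cytometry. IC50/pIC50 was derived by 4PL fitting of MFI versus concentration.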

[2] = biological target: T2, Fc-fusion protein of human PSMA (hPSMA-Fc) (Homo sapiens, UniProt Q04609); experiment: Surface plasmon resonance assay (Biacore T200, single cycle kinetic); format: binding; details: read-out: pKD CAT (converted)
T2 construct: purchased Acro Biosystems PSA-H5264
T2 sequence (Q04609 44-750 limits assumed): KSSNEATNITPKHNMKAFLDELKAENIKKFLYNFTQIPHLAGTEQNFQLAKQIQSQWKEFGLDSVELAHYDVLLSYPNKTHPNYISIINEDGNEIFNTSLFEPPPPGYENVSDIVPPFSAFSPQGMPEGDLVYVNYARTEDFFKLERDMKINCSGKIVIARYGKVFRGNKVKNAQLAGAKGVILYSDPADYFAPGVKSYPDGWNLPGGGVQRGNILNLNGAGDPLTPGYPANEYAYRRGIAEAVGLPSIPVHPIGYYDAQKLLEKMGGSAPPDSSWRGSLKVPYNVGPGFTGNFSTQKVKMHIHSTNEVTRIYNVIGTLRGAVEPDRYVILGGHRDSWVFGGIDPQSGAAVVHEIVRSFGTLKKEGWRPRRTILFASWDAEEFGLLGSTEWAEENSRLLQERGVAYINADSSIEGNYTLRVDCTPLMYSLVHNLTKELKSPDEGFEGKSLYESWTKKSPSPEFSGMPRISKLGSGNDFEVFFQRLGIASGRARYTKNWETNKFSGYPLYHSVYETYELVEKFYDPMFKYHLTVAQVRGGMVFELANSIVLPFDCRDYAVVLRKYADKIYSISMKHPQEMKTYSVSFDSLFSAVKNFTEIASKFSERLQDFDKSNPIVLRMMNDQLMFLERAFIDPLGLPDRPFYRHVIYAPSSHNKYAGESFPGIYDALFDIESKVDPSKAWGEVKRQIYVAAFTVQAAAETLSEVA
How it was run: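 hPSMA-Fc was captured (~1000 RU) on an Fc-binding-peptide CM5 chip, and compounds were run in single cycle kinetic mode at 25° C in HBST with 0.1% DMSO. Double-blank-corrected sensorgrams were fitted to a 1:1 Langmuir model to give KD, reported as pKD.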

[3] = pIC50 category of FACS binding, C4-2 cells
[4] = pKD category for PSMA SPR activity assay, hPSMA-Fc, 25° C.
[5] = FACS binding, PSMA-expressing C4-2 cells, pIC50 category
[6] = PSMA SPR assay, hPSMA-Fc, 25° C., pKD category
[7] = FACS binding, C4-2 cells, competition with 50 nM PSM-0183, category
[8] = SPR, hPSMA-Fc, single cycle kinetic, 25° C., category

- IC50 [1, 3]: 200 to 1260 nM
- Kd [2, 4]: > 501 nM
SMILES: CC(=O)NC(C)(C)C(=O)N[C@@H](Cc1ccc(Cl)cc1)C(=O)N[C@H]1CSSC[C@@H](C(N)=O)NC(=O)[C@H](CC(N)=O)NC(=O)C(C)(C)NC(=O)[C@H](CCCNC(=N)N)NC(=O)[C@H](CCCCN)NC1=O [PSM-0443, Ac-Aib-Pcf-[Cys-Lys-Arg-Aib-Asn-Cys]-NH2] (Ac-[Aib][Phe(4-Cl)]CKR[Aib]NC-NH2; disulfide 3-8)

- IC50 [1, 5]: < 200 nM
- Kd [2, 6]: < 12.6 nM
SMILES: CC(=O)N[C@H](C(=O)NC(C)(C)C(=O)N[C@@H](Cc1ccccc1)C(=O)N[C@H]1CSSC[C@@H](C(=O)N[C@H](C(=O)O)C(C)(C)C)NC(=O)[C@H](CC(N)=O)NC(=O)C(C)(C)NC(=O)[C@H](CCCNC(=N)N)NC(=O)[C@H](CCCCN)NC1=O)[C@@H](C)O [PSM-0300, Ac-Thr-Aib-Phe-[Cys-Lys-Arg-Aib-Asn-Cys]-Tle-OH] (Ac-T[Aib]FCKR[Aib]NC[Tle]-OH; disulfide 4-9)

- IC50 [1, 7]: < 200 nM
- Kd [2, 8]: < 12.6 nM
SMILES: CC(=O)N[C@H](C(=O)NC(C)(C)C(=O)N[C@@H](Cc1ccc(Cl)cc1)C(=O)N[C@H]1CSSC[C@@H](C(=O)N[C@H](C(=O)N[C@H](C(N)=O)[C@@H](C)O)C(C)(C)C)NC(=O)[C@H](CC(N)=O)NC(=O)C(C)(C)NC(=O)[C@H](CCCNC(N)=O)NC(=O)[C@H](CCCCN)NC1=O)[C@@H](C)O [PSM-0179, Ac-Thr-Aib-Pcf-[Cys-Lys-Cit-Aib-Asn-Cys]-Tle-Thr-NH2] (Ac-T[Aib][Phe(4-Cl)]CK[Cit][Aib]NC[Tle]T-NH2; disulfide 4-9)

- IC50 [1, 3]: 200 to 1260 nM
- Kd [2, 4]: 126 to 501 nM
SMILES: CNCCCC[C@@H]1NC(=O)[C@@H](NC(=O)[C@H](Cc2ccc(Cl)cc2)NC(=O)C(C)(C)NC(=O)[C@@H](NC(=O)CC2CCN(C(=O)CN3CCN(CC(=O)O)CCN(CC(=O)O)CCN(CC(=O)O)CC3)CC2)C(C)(C)C)CSSC[C@@H](C(=O)N[C@H](C(=O)N[C@H](C(N)=O)[C@@H](C)O)C(C)(C)C)NC(=O)[C@H](CC(N)=O)NC(=O)C(C)(C)NC(=O)[C@H](CCCNC(=N)NC)NC1=O [PSM-0538, DOTA-Cmp-Tle-Aib-Pcf-[Cys-Lys (Mc)-Arg (Mc)-Aib-Asn-Cys]-Tle-Thr-NH2] ({DOTA}-[X1][Tle][Aib][Phe(4-Cl)]C[Lys(Me)][Arg(Me)][Aib]NC[Tle]T-NH2; disulfide 5-10)

- IC50 ([1]; FACS binding, C4-2 cells, category): < 200 nM
- Kd ([2]; PSMA SPR assay, category): < 12.6 nM
SMILES: CNCCCC[C@@H]1NC(=O)[C@@H](NC(=O)[C@H](Cc2ccc(Cl)cc2)NC(=O)C(C)(C)NC(=O)[C@@H](NC(=O)CC2CCN(C(=O)CN3CCN(CC(N)=O)CCN(CC(N)=O)CCN(CC(N)=O)CC3)CC2)[C@@H](C)O)CSSC[C@@H](C(=O)N[C@H](C(=O)N[C@H](C(N)=O)[C@@H](C)O)C(C)(C)C)NC(=O)[C@H](CC(N)=O)NC(=O)C(C)(C)NC(=O)[C@H](CCCNC(=N)NC)NC1=O [PSM-0593, DOTAM-Cmp-Thr-Aib-Pcf-[Cys-Lys(Me)-Arg(Me)-Aib-Asn-Cys]-Tle-Thr-NH2] (DO3AM-[X1]T[Aib][Phe(4-Cl)]C[Lys(Me)][Arg(Me)][Aib]NC[Tle]T-NH2; disulfide 5-10)

- IC50 [1, 7]: < 200 nM
- Kd [2, 8]: < 12.6 nM
SMILES: C[C@@H](O)[C@H](NC(=O)[C@@H](NC(=O)[C@@H]1CSSC[C@H](NC(=O)[C@H](Cc2ccc(Cl)cc2)NC(=O)C(C)(C)NC(=O)[C@@H](NC(=O)CC2CCN(C(=O)CN3CCN(CC(=O)O)CCN(CC(=O)O)CCN(CC(=O)O)CC3)CC2)[C@@H](C)O)C(=O)N[C@@H](CCCCN)C(=O)N[C@@H](CCCNC(=N)N)C(=O)N[C@H](CCC(=O)O)C(=O)N[C@@H](CC(N)=O)C(=O)N1)C(C)(C)C)C(N)=O [PSM-0260, DOTA-Cmp-Thr-Aib-Pcf-[Cys-Lys-Arg-glu-Asn-Cys]-Tle-Thr-NH2] ({DOTA}-[X1]T[Aib][Phe(4-Cl)]CKR[dE]NC[Tle]T-NH2; disulfide 5-10)

- IC50 [1, 3]: > 3160 nM
- Kd [2, 4]: > 501 nM
SMILES: CCCC[C@H](NC(=O)[C@@H]1CSSC[C@H](NC(=O)[C@H](Cc2ccccc2)NC(=O)[C@H](C)NC(=O)[C@@H](NC(C)=O)[C@@H](C)O)C(=O)N[C@@H](CCCCN)C(=O)N[C@@H](CCCNC(=N)N)C(=O)N[C@@H](C)C(=O)N[C@@H](CC(N)=O)C(=O)N1)C(=O)N[C@H](C(=O)N[C@H](CC(=O)O)C(N)=O)[C@@H](C)O (single isomer, unassigned) [PSM-0436, Ac-Thr-Ala-phe-[Cys-Lys-Arg-Ala-Asn-Cys]-Nle-Thr-Asp-NH2]

- IC50 [1, 5]: > 3160 nM
- Kd [2, 6]: > 501 nM
SMILES: CC(=O)N[C@H](C(=O)NC(C)(C)C(=O)N[C@@H](Cc1ccccc1)C(=O)N[C@@H]1CSSC[C@H](C(=O)N[C@H](C(=O)N[C@H](C(N)=O)[C@@H](C)O)C(C)(C)C)NC(=O)[C@H](CC(N)=O)NC(=O)C(C)(C)NC(=O)[C@H](CCCNC(=N)N)NC(=O)[C@H](CCCCN)NC1=O)[C@@H](C)O [PSM-0327, Ac-Thr-Aib-Phe-[cys-Lys-Arg-Aib-Asn-cys]-Tle-Thr-NH2] (Ac-T[Aib]F[dC]KR[Aib]N[dC][Tle]T-NH2; disulfide 4-9)
